Reference: publication PMC3759991 (Clinical cancer research : an official journal of the …, 2012)
Where no end group is shown, it is not given here.

What was measured:
HLA-A*3301 = HLA-A*3301 (Homo sapiens, UniProt P04439, A270S/D185E/E176V/E277Q/E87N/F33T/G231S/H175R/I121M/I218V/I322F/K168Q/K210R/L300P/L318F/M331R/P217A/Q86R/Q94H/R138Q/T323A/T345S/T97I/V358M/Y195H); test: competitive MHC allele binding assay, A*3301
HLA-A*0301 = HLA-A*0301 (Homo sapiens, UniProt P04439); test: competitive MHC allele binding assay, A*0301
HLA-A*3101 = HLA-A*3101 (Homo sapiens, UniProt P04439, A270S/D185E/E176V/E277Q/F33T/G231S/G80R/H175R/I121M/I218V/I322F/K168Q/L300P/L318F/M331R/P217A/Q94H/R138Q/T323A/T345S/T97I/V358M); test: competitive MHC allele binding assay, A*3101
HLA-A*3001 = HLA-A*3001 (Homo sapiens, UniProt P04439, D140H/D185E/E176W/F33S/G80R/H175R/K168Q/R138E/R41S); test: competitive MHC allele binding assay, A*3001
HLA-A*6801 = HLA-A*6801 (Homo sapiens, UniProt P04439, A269V/D185E/E176V/E277Q/E87N/F33Y/G231S/I121M/I166T/I218V/L180W/L300P/L318F/N151K/P208A/P217A/Q86R/R169H/T345S); test: competitive MHC allele binding assay, A*6801
HLA-A*1101 = HLA-A*1101 (Homo sapiens, UniProt P04439, A114D/D185E/E176A/F33Y/L180Q/S129P/T187R); test: competitive MHC allele binding assay, A*1101

## KLGGGQYGK [E255K-A]
HLA-A*3301
  IC50: > 70 µM
HLA-A*0301
  IC50: 0.208 µM
HLA-A*3101
  IC50: 31.8 µM
HLA-A*3001
  IC50: 27.8 µM
HLA-A*6801
  IC50: 57.1 µM
HLA-A*1101
  IC50: 1.07 µM

## EVYEGVWKK [E225K-B WT]
HLA-A*3301
  IC50: 0.06 µM
HLA-A*0301
  IC50: 1.07 µM
HLA-A*3101
  IC50: > 70 µM
HLA-A*3001
  IC50: > 70 µM
HLA-A*6801
  IC50: 0.01 µM
HLA-A*1101
  IC50: 0.063 µM
